Test results: US9777002B2, “Inhibitors of the renal outer medullary potassium channel” (Merck Sharp & Dohme Corp., priority 2012, dated 2017)
pIC50: −log10 of the molar value.

Target: T1, hROMK (hKir1.1) (Homo sapiens, UniProt P48048)
T1 construct: expressed in transfected cells
T1 sequence (P48048 1-391): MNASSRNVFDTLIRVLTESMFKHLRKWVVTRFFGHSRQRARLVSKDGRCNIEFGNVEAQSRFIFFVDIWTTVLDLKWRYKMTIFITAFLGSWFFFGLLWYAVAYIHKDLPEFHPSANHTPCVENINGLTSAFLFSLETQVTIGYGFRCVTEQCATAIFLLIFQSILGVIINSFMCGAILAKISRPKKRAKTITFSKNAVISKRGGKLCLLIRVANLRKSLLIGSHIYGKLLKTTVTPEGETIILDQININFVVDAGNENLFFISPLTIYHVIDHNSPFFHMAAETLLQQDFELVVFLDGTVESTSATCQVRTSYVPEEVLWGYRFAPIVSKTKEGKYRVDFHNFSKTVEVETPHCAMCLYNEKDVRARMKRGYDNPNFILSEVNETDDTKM
Experiment: Thallium Flux Assay
Type: cell-based
Details: HEK293 cells stably expressing hROMK (hKir1.1)
Protocol: Cell Culture Conditions—HEK293 cells stably expressing hROMK (hKir1.1) were grown at 37° C. in a 10% CO2 humidified incubator in complete growth media: Dulbecco's Modified Eagle Medium supplemented with non-essential amino acids, Penicillin/Streptomycin/Glutamine, G418 and FBS. At >80% confluency, aspirate the media from the flask and rinse with 10 mL Calcium/Magnesium-free PBS. Add 5 mL of 1× trypsin (prepared in Ca/Mg Free PBS) to T-225 flask and return flask to 37° C./CO2 incubator for 2-3 minutes. To dislodge the cell, gently bang the side of the flask with your hand. Triturate the cells completely and then transfer the cells to 25 mL complete media. Centrifuge at 1,500 rpm for 6 min followed by resuspension in complete growth media and determine cell concentration. For typical re-seeding, 4E6 cells/T-225 flask will attain >80% confluency in 4 days. Under ideal growth conditions and appropriate tissue culture practices, this cell line is stable for 40-45 passages.
FluxOR Kit Components (Invitrogen F10017)
• FluxOR™ Reagent (Component A) • FluxOR™ Assay Buffer (Component B)—10× Concentrate • PowerLoad™ Concentrate (Component C)—100× Concentrate • Probenecid (Component D)—Lyophilized sample is kept at −20° C. Water soluble, 100× after solubilization in 1 mL water. Store at 4° C. • FluxOR™ Chloride-free Buffer (Component E)—5× Concentrate • Potassium sulfate (K2SO4) Concentrate (Component F)—125 mM in water. Store at 4° C. • Thallium sulfate (Tl2SO4) Concentrate (Component G)—50 mM in water. Store at 4° C. • DMSO (dimethyl sulfoxide, Component H)—1 mL (100%) Reagent Preparation: FluxOR Working Solutions • 1000× FluxOR™ Reagent: Reconstitute a vial of component A in 100 μl DMSO; Mix well; Store 10 μl aliquots at −20° C. • 1× FluxOR™ Assay Buffer: Dilute Component B 10-fold with water; Adjust pH to 7.4 with Hepes/NaOH; Filter and store at 4° C. • Probenecid/Assay Buffer: 100 mL of 1× FluxOR™ Assay Buffer; 1 mL of reconstituted component D; Store at 4° C. • Loading Buffer (per microplate): 10 μl 1000× FluxOR™ Reagent; 100 μl component C; 10 mL Probenecid/Assay Buffer • Compound Buffer (per microplate): 20 mL Probenecid/Assay Buffer; 0.3 mM ouabain (10 mM ouabain in water can be stored in amber bottle/aluminum foil at room temperature); Test compound • 1× FluxOR™ Chloride-Free Buffer: Prepare 1× working solution in water. Can be stored at room temperature • Stimulant Buffer (prepared at 5× final concentration in 1× FluxOR™Chloride-Free Buffer): 7.5 mM Thallium sulfate and 0.75 mM Potassium sulfate (to give a final assay concentration of 3 mM Thallium/0.3 mM Potassium). Store at 4° C. when not in use. If kept sterile, this solution is good for months.
Assay Protocol—The ROMK channel functional thallium flux assay is performed in 384 wells, using the FLIPR-Tetra instrument. HEK-hKir1.1 cells are seeded in Poly-D-Lysine microplates and kept in a 37° C.-10% CO2 incubator overnight. On the day of the experiment, the growth media is replaced with the FluxOR™ reagent loading buffer and incubated, protected from light, at ambient temperature (23-25° C.) for 90 min. The loading buffer is replaced with assay buffer± test compound followed by 30 min incubation at ambient temperature, where the Thallium/Potassium stimulant is added to the microplate.
• 1. Seed HEK-hKir1.1 cells (50 μl at 20,000 cells/well) in 384-well PDL coated Microplates • 2. Allow cells to adhere overnight in humidified 37° C./10% CO2 incubator • 3. Completely remove cell growth media from microplate and replace with 25 μl loading buffer • 4. Incubate Microplate at room temperature, protected form light, for 90 min • 5. Remove loading buffer and replace with 25 μl 1× Assay Buffer±test compound. • 6. Incubate microplate at room temperature, protected from light, for 30 min • 7. At FLIPR-Tetra 384: Add stimulant (Thallium/Potassium) solution to microplate and monitor fluorescence. Excitation=400 nm, Emission=460 & 580 nm. Collect data for ˜10 min. […]

| pIC50 | Structure (SMILES) |
| --- | --- |
| 6.82 | Cc1c([C@@H](O)CN2CCC(NC(=O)c3ccc(-n4cnnn4)nc3)CC2)ccc2c1COC2=O [Example 49, (R)-N-(1-(2-Hydroxy-2-(4-methyl-1-oxo-1,3-dihydroisobenzofuran-5-yl)ethyl)piperidin-4-yl)-6-(1H-tetrazol-1-yl)nicotinamide] |
| 6.74 | Cc1cc(C(=O)N[C@H]2CCN(C[C@H](O)c3ccc4c(c3C)COC4=O)C[C@H]2F)ccc1C#N (single isomer, unassigned) [47 B] |
| 7.00 | Cc1cc(C(=O)NC2CCN(C[C@H](O)c3ccc4c(c3C)COC4=O)CC2F)ncc1C#N (single isomer, unassigned) [48 B] |
| 6.30 | Cc1c(CCN2CCC(NC(=O)c3ccc(-n4cnnn4)nc3)CC2)ccc2c1COC2=O [Example 3, N-(1-(2-(4-Methyl-1-oxo-1,3-dihydroisobenzofuran-5-yl)ethyl)piperidin-4-yl)-6-(1H-tetrazol-1-yl)nicotinamide] |
| 6.00 | Cc1c([C@@H](O)CN2CC[C@@H](NC(=O)c3ccc(C#N)cn3)[C@H](F)C2)ccc2c1COC2=O [Example 38, 5-Cyano-N-((trans)-3-fluoro-1-((R)-2-hydroxy-2-(4-methyl-1-oxo-1,3-dihydroisobenzofuran-5-yl)ethyl)piperidin-4-yl)picolinamide] |
| 6.89 | Cc1c([C@@H](O)CN2CCC(N3Cc4cc(-n5cnnn5)ccc4C3=O)CC2)ccc2c1COC2=O [Example 91, (R)-2-(1-(2-Hydroxy-2-(4-methyl-1-oxo-1,3-dihydroisobenzofuran-5-yl)ethyl)piperidin-4-yl)-5-(1H-tetrazol-1-yl)isoindolin-1-one] |
| 7.15 | COc1cc(F)c(C#N)cc1C(=O)NC1CCN(C[C@H](O)c2ccc3c(c2C)COC3=O)CC1 [Example 20, (R)-5-Cyano-4-fluoro-N-(1-(2-hydroxy-2-(4-methyl-1-oxo-1,3-dihydroisobenzofuran-5-yl)ethyl)piperidin-4-yl)-2-methoxybenzamide] |
| 8.00 | COc1cc(C(=O)NC2CCN(CC(O)c3ccc4c(c3C)COC4=O)CC2)ccc1C#N (stereo not shown) [Example 7, 4-Cyano-N-(1-(2-hydroxy-2-(4-methyl-1-oxo-1,3-dihydroisobenzofuran-5-yl)ethyl)piperidin-4-yl)-3-methoxybenzamide] |
| 6.72 | Cc1c([C@@H](O)CN2CCC(NC(=O)c3ccc(-n4cnnn4)cn3)CC2)ccc2c1COC2=O [Example 53, (R)-N-(1-(2-Hydroxy-2-(4-methyl-1-oxo-1,3-dihydroisobenzofuran-5-yl)ethyl)piperidin-4-yl)-5-(1H-tetrazol-1-yl)picolinamide] |
| 6.41 | Cc1c([C@@H](O)CN2CCC(C)(NC(=O)c3ccc(-n4cnnn4)nc3)CC2)ccc2c1COC2=O [Example 51, (R)-N-(1-(2-Hydroxy-2-(4-methyl-1-oxo-1,3-dihydroisobenzofuran-5-yl)ethyl)-4-methylpiperidin-4-yl)-6-(1H-tetrazol-1-yl)nicotinamide] |
| 6.72 | Cc1c([C@@H](O)CN2CCC(C)(CNC(=O)c3ccc(-n4cnnn4)nc3)C2)ccc2c1COC2=O (stereo partly drawn) [Example 84, N-((1-((R)-2-Hydroxy-2-(4-methyl-1-oxo-1,3-dihydroisobenzofuran-5-yl)ethyl)-3-methylpyrrolidin-3-yl)methyl)-6-(1H-tetrazol-1-yl)nicotinamide] |
| 6.25 | Cc1cc(C(=O)NC2CCN(C[C@H](O)c3ccc4c(c3C)COC4=O)CC2)ccc1-n1cnnn1 [Example 78, (R)-N-(1-(2-Hydroxy-2-(4-methyl-1-oxo-1,3-dihydroisobenzofuran-5-yl)ethyl)piperidin-4-yl)-3-methyl-4-(1H-tetrazol-1-yl)benzamide] |
| 6.32 | Cc1c(CCN2CCC(NC(=O)c3cc(C#N)cs3)CC2)ccc2c1COC2=O [Example 32, 4-Cyano-N-(1-(2-(4-methyl-1-oxo-1,3-dihydroisobenzofuran-5-yl)ethyl)piperidin-4-yl)thiophene-2-carboxamide] |
| 7.70 | COc1cc(C(=O)NC2CCN(CCc3ccc4c(c3C)COC4=O)CC2)ccc1C#N [Example 5, 4-Cyano-3-methoxy-N-(1-(2-(4-methyl-1-oxo-1,3-dihydroisobenzofuran-5-yl)ethyl)piperidin-4-yl)benzamide] |
| 6.59 | Cc1nc(C(=O)N[C@H]2CCN(C[C@H](O)c3ccc4c(c3C)COC4=O)C[C@H]2F)ccc1C#N (single isomer, unassigned) [44 B] |
| 6.59 | Cc1c([C@@H](O)CN2CCC(CNC(=O)c3ccc4nonc4c3)C2)ccc2c1COC2=O (stereo partly drawn) [Example 89, N-((1-((R)-2-Hydroxy-2-(4-methyl-1-oxo-1,3-dihydroisobenzofuran-5-yl)ethyl)pyrrolidin-3-yl)methyl)benzo[c][1,2,5]oxadiazole-5-carboxamide] |
| 6.27 | Cc1c([C@@H](O)CN2CC[C@H](NC(=O)c3ccc(-n4cnnn4)cn3)[C@H](F)C2)ccc2c1COC2=O (single isomer, unassigned) [58 A] |
| 6.43 | Cc1c([C@@H](O)CN2CCC(NC(=O)c3ccc(-n4cnnn4)c4ncccc34)CC2)ccc2c1COC2=O [Example 79, (R)-N-(1-(2-Hydroxy-2-(4-methyl-1-oxo-1,3-dihydroisobenzofuran-5-yl)ethyl)piperidin-4-yl)-8-(1H-tetrazol-1-yl)quinoline-5-carboxamide] |
| 6.66 | Cc1c([C@@H](O)CN2CCC(NC(=O)c3ccc4nonc4c3)CC2)ccc2c1COC2=O [Example 66, (R)-N-(1-(2-Hydroxy-2-(4-methyl-1-oxo-1,3-dihydroisobenzofuran-5-yl)ethyl)piperidin-4-yl)benzo[c][1,2,5]oxadiazole-5-carboxamide] |
| 6.41 | Cc1c([C@@H](O)CN2CCC(NC(=O)c3ccc(-c4nccs4)cc3)CC2)ccc2c1COC2=O [Example 75, (R)-N-(1-(2-Hydroxy-2-(4-methyl-1-oxo-1,3-dihydroisobenzofuran-5-yl)ethyl)piperidin-4-yl)-4-(thiazol-2-yl)benzamide] |
| 7.15 | CCOc1cc(C#N)ccc1C(=O)NC1CCN(C[C@H](O)c2ccc3c(c2C)COC3=O)CC1 [Example 26, (R)-4-Cyano-2-ethoxy-N-(1-(2-hydroxy-2-(4-methyl-1-oxo-1,3-dihydroisobenzofuran-5-yl)ethyl)piperidin-4-yl)benzamide] |

| Structure (SMILES) | pIC50 |
| --- | --- |
| Cc1c([C@@H](O)CN2C3CCC2CC(NC(=O)c2ccc(-n4cnnn4)cn2)C3)ccc2c1COC2=O (stereo partly drawn) [Example 76, N-(8-((R)-2-Hydroxy-2-(4-methyl-1-oxo-1,3-dihydroisobenzofuran-5-yl)ethyl)-8-azabicyclo[3.2.1]octan-3-yl)-5-(1H-tetrazol-1-yl)picolinamide] | 6.37 |
